Experimental data from patent US20050153381A1, “Immunocapture of mitochondrial protein complexes” (priority 2002, published 2005).

What was measured:
[1] = test system: human fibroblasts (cell strain MRC5); type: cell-based
Protocol: Normal, human fibroblasts (cell strain MRC5) were treated with DCC for five to seven population doublings. Complex IV subunit I in treated fibroblasts was detected immunocytochemically with mAb RAC#18-1D6E1A8 using standard protocols (Janes et al., J. Histochem. Cytochem., 52: 1011-1018, 2004; RAC#18-1D6E1A8 is commercially available from Molecular Probes, MitoScience, and Abcam). Subunit I levels were determined relative to mitochondrial mass measured by porin content (a mitochondrial outer membrane protein encoded by nuclear DNA). Porin content was also determined immunocytochemically using porin-specific mAb 31HL (available from Calbiochem). mtDNA depletion in DCC-treated fibroblasts was detected using real time PCR and FISH with a mtDNA probe in accordance with commonly used methods (see, Janes et al., J. Histochem. Cytochem., 52: 1011-1018, 2004).

human mtDNA polymerase γ = human mtDNA polymerase γ (Homo sapiens, UniProt P54098); settings: cited from earlier work
Complex I = Complex I (Homo sapiens, UniProt P49821+P56556); settings: normal fibroblast Complex I; DPI in reaction buffer (FIG. 28)
Protocol: (§1) Mitochondria (human heart, human fibroblast or bovine heart) were solubilized at 5 mg/ml mitochondrial protein, 1% wt/vol lauryl maltoside, 100 mM NaCl, 25 mM HEPES pH 7.5, and the protease inhibitors pepstatin (0.5 μg/ml), leupeptin (0.5 μg/ml) and PMSF (1 mM). The samples were incubated at 4° C. for 30 minutes and the insoluble material removed by centrifugation at 16,000×g for 20 minutes. Solubilized mitochondria were diluted to the desired concentration in 150 mM NaCl, 50 mM Tris-HCl, pH 7.5 containing 2.5% bovine serum albumin as a blocking and stabilization agent.
(§2) After the entire sample wicked up into the nitrocellulose (approximately 15 minutes), the stick was transferred to a second well containing 50 μl of wash buffer (150 mM NaCl, 50 mM Tris-HCl, pH 7.5), which was allowed to wick up the stick (approximately 15 minutes). The absorbent pad was then removed and the entire dipstick incubated in a tube containing 3 ml wash buffer for approximately 15 minutes. The washed dipstick (with the immunocaptured OXPHOS complex of interest) was then transferred to the appropriate enzyme reaction buffer to reveal enzyme activity as described below.
Complex I. The Complex I reaction buffer solution contained 0.1 mg/ml NADH, 2.5 mg/ml NBT in 2 mM Tris-HCl, pH 7.4. […]

Complex IV = Complex IV (Bos taurus, UniProt P00396)
Protocol: as §1, §2
Complex IV. The Complex IV reaction buffer solution contained 0.5 mg/ml 3,3′ diaminobenzidine-tetrachloride (DAB) and 0.1 mM reduced cytochrome c in PBS, pH 7.4. […]

[2] = target: T1, Complex IV (cytochrome c oxidase) (Bos taurus, UniProt P00396); test: Complex IV (cytochrome c oxidase) activity, ferrocytochrome c oxidation at 550 nm; type: biochemical, bovine; settings: mitochondrial membranes exposed to up to 1600 μM; membranes and isolated enzyme (FIG. 24A)
T1 construct: from tissue; host or cells: bovine heart mitochondria
Protocol: 4. Fe^3Fe^2+ Catalyzed Oxidation of Mitochondria. Mitochondria at 5 mg/mL in 25 mM KH2PO4 pH 7.2, 5 mM MgCl2 were incubated for 0, 0.5, 1, 2, or 4 hours with 1 mM FeCl3/25 mM sodium ascorbate. Incubation could not be performed for less than 0.5 h because iron could only be removed by rapid dialysis, which was performed for 30 min against 25 mM potassium phosphate pH 7.2, 5 mM MgCl2 using 12000 Da MWCO dialysis membrane (Spectrapor). After oxidation, mitochondrial membranes were subjected to the Complex IV activity assay described below. The Complex IV enzyme was then isolated by the immunocapture extraction method above.
5. Peroxynitrite Catalyzed Oxidation of Mitochondria. […] Following this oxidative treatment, Complex IV activity was measured before and after Complex IV immunocapture.
6. […] Potassium cyanide-sensitive Complex IV activity was measured in bovine heart mitochondria or with immunopurified isolated enzyme. […] Reduced bovine heart cytochrome c was purified over a Sephadex G-15 (Pharmacia) column equilibrated with assay buffer, collected in 1 mL fractions, and the concentration measured at 550 nm in a Beckman DU7. The oxidation of ferrocytochrome c was followed at 550 nm in a 1 mL reaction vessel in the DU7 or in a 96 well plate (Corning) using a Victor2 1460 multi-plate reader (Perkin-Elmer) with a narrow band pass 550 nm filter. […]

[3] = test system: Complex I (NADH:UQ1 oxidoreductase); test: Immunocaptured Complex I NADH:UQ1 oxidoreductase microplate activity assay; type: biochemical; settings: 16 μg heart mitochondria per well; 240 ng rotenone (FIG. 27)
Protocol: In brief, 1 μg mAb RAC#24-20D1AB7 was added per well (50 μl of a 20 μg/ml solution in PBS) on a protein G-coated 96-well plate, incubated overnight at 4° C., then washed three times with PBS. Then, heart mitochondria solubilized in lauryl maltoside as previously described and diluted in PBS were added at 16 μg (♦), 8 μg (▪), 4 μg (▴) and 0 μg (●) per well in 50 μl aliquots and incubated at room temperature for 2 hours. The wells then were washed three times with 200 μl/well of 20 mM Tris/HCl, pH 7.5, 50 mM KCl, 0.015% lauryl maltoside. A phospholipid solution (see below) was added at 40 μl/well, incubated for 45 minutes at 4° C. and then 200 μl of assay solution (25 mM KPi pH 7.2, 5 mM MgCl2, 2 mM KCN, 260 μM NADH, and 200 μM UQ1) was added directly to the phospholipid solution. The oxidation of NADH was measured by following the decrease of the absorbance at 340 nm. Absorbance changes were measured at 340 nm with a Victor2 from Perkin Elmer for two hours.
The phospholipid stock solution was made by mixing 0.76 ml of 10 mg/ml egg-yolk phosphatidyl choline, 0.38 ml of 5 mg/ml egg-yolk phosphatidylethanolamine, and 0.1 ml of 5 mg/ml cardiolipin in round bottom flask. This mixture was dried under N2, resuspended in 4.25 ml buffer I (20 mM Tris/HCl pH 7.5, 50 mM KCl), and vortexed. […]

[4] = target: T2, recombinant human IF1, His-tagged (UniProt Q9UII2)
T2 sequence: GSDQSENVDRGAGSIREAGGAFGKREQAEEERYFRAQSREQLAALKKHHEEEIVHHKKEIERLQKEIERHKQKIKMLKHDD

[5] = target: T3, C-V-IP (inhibitor protein IF1), human (UniProt Q9UII2)
T3 sequence: T2 sequence

[6] = test system: human mitochondrial F1/F0 ATPase (Complex V); test: ATPase activity of immunocaptured F1/F0 ATPase, 96-well; type: biochemical
Protocol: Solubilization. Samples were thawed and placed in 25 mM HEPES pH 7.5 (to dissociate F1F0/IF1 interactions) or 10 mM […] (Anatrace) pH 6.5 (to retain F1F0/IF1 interactions), containing 0.4% (w/v) […], and the protease inhibitors leupeptin (0.5 μg/ml), pepstatin (0.5 μg/ml) and PMSF (1 mM). Mitochondria were solubilized at 5 mg/ml and whole cells were solubilized at 2×10^7 cells/ml. Samples were mixed well and then kept on ice for 30 minutes with occasional agitation. Insoluble material was then removed by centrifugation at 16,000×g for 20 minutes at 4° C.
Immunocapture. Assays were run in 96-well plates (Falcon Probind™) using 100 μl/well. […] To control for non-specific adsorption of ATPase, a non-specific mouse monoclonal antibody was used as a null capture mAb. Wells were then loaded with solubilized test samples diluted in TBS with 2.5% BSA, incubated for 2 hours at room temperature and then washed 4 times with TBS.
ATPase activity. ATPase reaction buffer (25 mM HEPES pH 7.5 or 10 mM MOPS pH 6.5, with 25 mM KCl, 5 mM MgCl2, 5 mM KCN and 2 mM ATP) was added at 100 μl/well and incubated for 3 hours at 37° C. The reaction was stopped and free Pi generated by ATP hydrolysis was detected essentially as described by Walker et al. (Meth. Enzymol., 260: 163-190, 1995) by addition of 0.5% ammonium molybendate in 0.7 M H2SO4 (42 μl/well) followed by 10% ascorbic acid (4 μl/well). After incubation for 30 minutes at room temperature to allow color development, absorbance was measured at 690 nm.
IF1 Stripping Conditions. IF1 was dissociated from previously immunocaptured IF1/F1F0 complexes by exposure to IF1 stripping buffer (30 mM Tris-sulfate pH 8, 250 mM KCl, 2 mM EDTA, 75 mM sucrose) for 30 minutes at 37° C. (Van Raaij et al., Biochem. 35: 15618-15625, 1996). The wells were then washed with either a pH 7.5 wash buffer (TBS) or a pH 6.5 wash buffer (10 mM MOPS pH 6.5, 150 mM NaCl and 1 mM MgCl2), and ATPase activity measured at either pH 7.5 or pH 6.5 as described above.
IF1 Addition Conditions. Recombinant human IF1 was obtained by PCR-based amplification of the appropriate gene from a human heart CDNA library (Clontech), cloning into pET15b (Novagen), transformation of E. coli and overexpression and purification of the His-tagged protein on a Ni column by standard protocols (Novagen). Isolated protein was diluted in pH 6.5 wash buffer (as described above) containing 1 mM ATP and incubated with previously immunocaptured F1F0. The wells were then washed with pH 6.5 wash buffer and ATPase activity measured at pH 6.5 as described above.

Complex I, sequence (P49821 21-464): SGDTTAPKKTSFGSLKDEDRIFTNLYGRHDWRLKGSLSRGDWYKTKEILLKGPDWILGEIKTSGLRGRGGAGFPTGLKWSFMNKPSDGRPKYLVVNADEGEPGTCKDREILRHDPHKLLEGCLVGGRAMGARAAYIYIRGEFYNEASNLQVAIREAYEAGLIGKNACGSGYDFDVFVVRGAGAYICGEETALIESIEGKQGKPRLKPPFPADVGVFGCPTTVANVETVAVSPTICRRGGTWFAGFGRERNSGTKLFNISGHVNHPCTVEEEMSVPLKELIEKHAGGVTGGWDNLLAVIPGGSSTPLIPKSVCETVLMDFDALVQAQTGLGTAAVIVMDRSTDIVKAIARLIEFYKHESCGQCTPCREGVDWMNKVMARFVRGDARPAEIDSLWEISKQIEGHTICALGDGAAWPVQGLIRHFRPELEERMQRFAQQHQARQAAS
Complex I, sequence (P56556 whole entry): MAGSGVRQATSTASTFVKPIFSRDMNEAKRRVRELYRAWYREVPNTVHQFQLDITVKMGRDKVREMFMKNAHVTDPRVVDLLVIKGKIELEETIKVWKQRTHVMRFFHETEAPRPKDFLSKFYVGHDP
human mtDNA polymerase γ, sequence (P54098 whole entry): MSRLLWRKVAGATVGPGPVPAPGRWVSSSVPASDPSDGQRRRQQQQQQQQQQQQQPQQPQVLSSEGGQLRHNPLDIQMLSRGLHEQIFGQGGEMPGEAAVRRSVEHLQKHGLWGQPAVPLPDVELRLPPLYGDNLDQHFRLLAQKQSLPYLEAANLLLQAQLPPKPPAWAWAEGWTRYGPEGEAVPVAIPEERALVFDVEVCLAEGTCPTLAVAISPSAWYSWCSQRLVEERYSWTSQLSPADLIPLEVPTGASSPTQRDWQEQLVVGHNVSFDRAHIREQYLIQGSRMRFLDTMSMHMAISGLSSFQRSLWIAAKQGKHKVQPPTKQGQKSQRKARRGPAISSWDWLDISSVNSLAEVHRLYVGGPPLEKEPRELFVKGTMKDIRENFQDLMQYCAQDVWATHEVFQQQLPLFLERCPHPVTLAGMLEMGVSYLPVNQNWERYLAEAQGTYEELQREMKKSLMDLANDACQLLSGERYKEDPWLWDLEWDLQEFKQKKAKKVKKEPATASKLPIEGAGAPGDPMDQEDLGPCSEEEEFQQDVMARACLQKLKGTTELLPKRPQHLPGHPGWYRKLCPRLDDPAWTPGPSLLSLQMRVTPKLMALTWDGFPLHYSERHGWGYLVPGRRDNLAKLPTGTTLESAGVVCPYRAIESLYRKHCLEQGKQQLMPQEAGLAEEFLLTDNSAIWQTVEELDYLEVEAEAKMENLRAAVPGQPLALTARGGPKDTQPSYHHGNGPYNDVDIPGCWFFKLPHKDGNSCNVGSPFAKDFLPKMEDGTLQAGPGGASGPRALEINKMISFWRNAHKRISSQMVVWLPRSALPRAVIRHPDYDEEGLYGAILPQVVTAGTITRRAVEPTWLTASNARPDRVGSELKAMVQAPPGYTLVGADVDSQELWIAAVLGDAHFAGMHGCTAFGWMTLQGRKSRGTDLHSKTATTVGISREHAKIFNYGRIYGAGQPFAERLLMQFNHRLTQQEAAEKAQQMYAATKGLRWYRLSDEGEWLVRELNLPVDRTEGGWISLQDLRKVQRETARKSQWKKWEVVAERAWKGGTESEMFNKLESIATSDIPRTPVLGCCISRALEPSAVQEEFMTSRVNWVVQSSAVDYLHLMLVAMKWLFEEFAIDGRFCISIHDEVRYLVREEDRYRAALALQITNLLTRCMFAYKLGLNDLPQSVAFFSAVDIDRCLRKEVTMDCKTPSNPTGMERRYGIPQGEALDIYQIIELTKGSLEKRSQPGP

Molecule: Nc1ccn([C@H]2CC[C@@H](CO)O2)c(=O)n1 [DDC, zalcitabine]
- depletion of mtDNA from fibroblasts [1]: within three population doublings
- inhibition of isolated human mtDNA polymerase γ (hierarchy DDC≧DDI≧D4T≧3TC≧AZT≧ABV) (human mtDNA polymerase γ): inhibited most dramatically

Molecule: c1ccc2c(c1)[I+]c1ccccc1-2 [DPI, diphenyleneiodonium]
- effect on Complex I activity dipstick signal (Complex I): reduced signal

Molecule: [N-]=[N+]=[N-] [azide]
- inhibition of oxidase activity in the Complex IV capture zone (Complex IV): near complete inhibition

Molecule: O=NOO [peroxynitrite]
- inhibition of Complex IV [2]: ~50%

Molecule: C=C(C)[C@H]1Cc2c(ccc3c2O[C@@H]2COc4cc(OC)c(OC)cc4[C@@H]2C3=O)O1 [rotenone]
- fraction of immunocaptured NADH:UQ1 oxidoreductase activity sensitive to inhibition [3]: approximately 30%

Molecule: Complex V (F1/F0 ATPase), human
- ATP hydrolysis activity [4]: addition of recombinant IF1, which reduced the rate of ATP hydrolysis to that before stripping
- ATP hydrolysis activity [5]: the enzyme could be greatly activated (>10-fold) by conditions that strip the IF1 from the protein

B1: recombinant IF1: His-tagged recombinant human inhibitor protein of F1/F0 ATPase expressed in E. coli (protein)
chain: T2 sequence
modifications: left off: small tags and cut ends
- effect on stripped F1/F0 ATPase from GM00028 and MRC5 cells ([6]; 5 μg/ml (FIG. 9)): inhibited
- effect on ATP hydrolysis of IF1-stripped immunocaptured F1/F0 ATPase ([6]; human heart mitochondria, assayed at pH 6.5 (FIG. 6)): reduced the rate of ATP hydrolysis to that before stripping
